Patent US20150141437A1, “AMIDOPHENOXYPROPANOLAMINES” (MEDIZINISCHE UNIVERSITÄT WIEN, priority 2012, published 2015)

Tests used:
[1] = tested on: P. berghei, ANKA strain, GFP MRA-865; test: P. berghei rodent malaria 4-day suppressive test; type: in vivo, Plasmodium berghei; settings: NMRI mice, 30 mg/kg 4x i.p.; for % activity (percent reduction of parasitemia) / % of control: day 4; for avg.Day 4 (parasitemia): day 4 (96 h post-infection); for % of control: control group taken as 100%
Description: Primary biological assessment of in vivo antimalarial efficacy of the compounds of the present invention was assessed using the P. berghei rodent malaria 4-day suppressive test as recently described (14) (parasite: P. berghei, ANKA strain, GFP MRA-865; mice: NMRI mice, SPF, females, 25±2 g. free from Eperythrozoon coccoides and Haemobartonella muris). The experimental groups were treated with a single dose of compounds of the present invention (30 mg/kg) by the i.p. route. The compounds were prepared at an appropriate concentration, as a solution or suspension containing 7% Tween80/3% ethanol. Day 1 to 3 (24 h, 48 h and 72 h post-infection), the experimental groups of mice were treated again with the same dose and by the same route as on day 0. Day 4 (24 h after the last treatment, i.e. 96 h post-infection), blood smears from all animals are prepared and stained with Giemsa. Parasitemia was determined as described elsewhere (14). The difference between the mean value of the control group (taken as 100%) and those of the experimental groups was calculated and expressed as percent reduction (=activity).
Indicated in TABLE 3 below are the percent reduction values for growth inhibition of the Plasmodium berghei parasite for the compounds of formula I indicated with their formula numbers of TABLE 2. Correlation of the formula numbers and chemical structures are set out in TABLE 1 of the example part.

[2] = tested on: P. falciparum NF54 (CQ sensitive); test: [3H]-hypoxanthine incorporation assay, NF54 strain; type: cell-based; settings: Plasmodium falciparum, values marked with asterisk: [3H]-hypoxanthine assay, read-out: IC50 growth inhibition NF54*
[3] = tested on: P. falciparum K1 (CQ-resistant); test: [3H]-hypoxanthine incorporation assay, K1 strain; type: cell-based; settings: Plasmodium falciparum, values marked with asterisk: [3H]-hypoxanthine assay, read-out: IC50 growth inhibition K1 (*)
[4] = tested on: P. falciparum 3D7 (CQ-sensitive); test: HRP2-based ELISA growth inhibition, 3D7 strain; type: cell-based; settings: Plasmodium falciparum, unmarked values: HRP II ELISA, 72 h
Description: (§1) Highly sensitive HRP2-based ELISA and [^3H]-hypoxanthine incorporation assay were used as markers for inhibition of parasite growth as previously described (12, 14). A solvent control and a chloroquine (CQ) control were included in the HRP2-based ELISA. CQ, lumefantrine and artesunate were included as controls in the [^3H]-hypoxanthine assay series.
(§2) The assay protocol of the HRP2-based ELISA is described in more detail in the following paragraphs.
(§3) The P. falciparum clones were maintained in continuous culture as described previously (10). Briefly, 3D7 (CQ-sensitive), NF54, and K1 (CQ-resistant) P. falciparum clones were obtained from MR4/American Type Culture Collection, Manassas, Va., USA under the accession numbers MR4-102 (3D7), MRA-1000 (NF54), and MR4-159 (K1). P. falciparum cultures were maintained in 25 cm^2 flasks. Parasites were cultured in RPMI 1640 (Sigma Aldrich, Austria) medium containing 10% human serum at a hematocrit of 5% (blood group 0 negative) at 37° C. under an atmosphere of 5% CO2, 5% O2 and 90% N2. The medium was changed every 24 to 48 hours. The culture was diluted and fresh erythrocytes were added whenever the parasite density reached >1%.
(§4) Stock solutions of compounds of formula I were prepared in DMSO (10 mg/mL). Stock concentrations of chloroquine and lumefantrine always remained 1 mg/mL and were prepared in 70% ethanol. Coating of culture plates with compounds of formula I and controls: 96 wells culture plates were coated as described previously (11). Working standards were prepared by diluting the stock solutions in RPMI1640 to obtain the desired final concentrations. Serial three-fold dilutions (seven concentrations and one drug-free control well) of the drugs (25 μL/well) were dispensed in duplicate into standard 96-well micro culture plates. Chloroquine was included as a reference drug in all experiments.
(§5) After reaching a parasitemia of 5% or higher, 5 mL of cell medium mixture were centrifuged at 700 g for 5 minutes at room temperature (RT). Packed red cells were resuspended in 3 mL of 5% D-sorbitol (Sigma Aldrich, Austria) in water at RT and immediately centrifuged again at 700 g for 5 minutes at RT followed by three washes with 3 mL of RPMI1640 medium. […].
(§6) Samples were diluted with RPMI1640 medium containing 0.5% Albumax II (GIBCO, Invitrogen, Vienna, Austria) by adding uninfected red blood cells to 1.5% hematocrit and 0.05% parasitemia. 150 μL of this cell medium mixture was then added to each well of 96-well plates precoated with test compounds and incubated at 37° C. for 72 hours in a gas mixture containing 5% CO2, 5% O2, and 90% N2. After 72 hours the plates were frozen at −20° C. until the histidine rich protein II assay (23).
(§7) A highly sensitive HRPII ELISA was used based on two commercially available monoclonal antibodies (Immunology Consultants Laboratory, Inc., Newberg, Oreg.) directed against P. falciparum-specific HRPII: MPFM-55A, an immunoglobulin M antibody served as the primary capture antibody and HRP-conjugated MPFG-55P (Immunology Consultants Laboratory, Inc., Newberg, Oreg.) as secondary antibody. The ELISA was employed to assess growth inhibition as a measure of drug susceptibility as previously described. Optical density was measured at 450 nm using a standard ELISA plate reader (12-13).
(§8) Hyperbolic concentration response curves were fitted to the data points by nonlinear least squares using the solver add-in of the Excel software.
(§9) Indicated in TABLE 2 are the IC50 [μM] values for growth inhibition of the 3D7 (NF54) and K1 strains of P. falciparum for the compounds of formula I indicated with their formula numbers in TABLE 2. Unmarked IC50 values for K1 and 3D7 strains of P. falciparum have been determined by HRP II enzyme linked immunosorbent assay (ELISA) as described above. […]

[5] = tested on: P. falciparum K1 (CQ-resistant); test: HRP2-based ELISA growth inhibition, K1 strain; type: cell-based; settings: Plasmodium falciparum, unmarked values: HRP II ELISA, 72 h
Description: as §1, §2, §3, §4, §5, §6, §7, §8, §9

[6] = tested on: chloroquine (CQ) sensitive (3D7) strain of P. falciparum; test: antimalarial activity against 3D7 compared to propafenone (data not shown); type: cell-based

Structure (SMILES)	IC50 [4]	IC50 [5]	further results
Cc1ccc(NC(=O)c2ccccc2OCC(O)CNCC23CC4CC(CC(C4)C2)C3)cc1 (stereo not drawn) [Compound I-40, 2-{3-[(Adamantan-1-ylmethyl)-amino]-2-hydroxy-propoxy}-N-p-tolyl-benzamide]			% activity (percent reduction of parasitemia) [1]: 58.24%; avg.Day 4 (parasitemia) [1]: 24.90; % of control [1]: 41.76%; IC50 [2]: 6 nM; IC50 [3]: 2 nM
O=C(Nc1ccc(F)cc1F)c1ccccc1OCC(O)CNCC12CC3CC(CC(C3)C1)C2 (stereo not drawn) [Compound I-39, 2-{3-[(Adamantan-1-ylmethyl)-amino]-2-hydroxy-propoxy}-N-(2,4-difluoro-phenyl)-benzamide]			% activity (percent reduction of parasitemia) [1]: 49.01%; avg.Day 4 (parasitemia) [1]: 30.40; % of control [1]: 50.99%; IC50 [2]: 9 nM; IC50 [3]: 3 nM
CCCN(CC(O)COc1ccccc1C(=O)NCc1ccccc1)C1C2CC3CC(C2)CC1C3 (stereo not drawn) [Compound I-17, 2-[3-(Adamantan-2-yl-propyl-amino)-2-hydroxy-propoxy]-N-benzyl-benzamide]	1190 nM	209 nM	
O=C(c1ccccc1)c1ccc(CNCC(O)COc2ccccc2C(=O)NCc2ccccc2)cc1 (stereo not drawn) [Compound I-49, 2-[3-(4-Benzoyl-benzylamino)-2-hydroxy-propoxy]-N-benzyl-benzamide]	9300 nM	3230 nM	
COc1ccccc1CN(CC(O)COc1ccccc1C(=O)NCc1ccccc1)C1C2CC3CC(C2)CC1C3 (stereo not drawn) [Compound I-21, 2-{3-[Adamantan-2-yl-(2-methoxy-benzyl)-amino]-2-hydroxy-propoxy}-N-benzyl-benzamide]	4120 nM	613 nM	
O=C(NCc1ccccc1)c1ccccc1OCC(O)CN(C1CC1)C1C2CC3CC(C2)CC1C3 (stereo not drawn) [Compound I-20, 2-[3-(Adamantan-2-yl-cyclopropyl-amino)-2-hydroxy-propoxy]-N-benzyl-benzamide]	1260 nM	100 nM	
CC(NCC(O)COc1ccccc1C(=O)NCc1ccccc1)C12CC3CC(CC(C3)C1)C2 (stereo not drawn) [Compound I-28, 2-[3-(1-Adamantan-1-yl-ethylamino)-2-hydroxy-propoxy]-N-benzyl-benzamide]	309 nM	90 nM	
O=C(NCCc1ccccc1)c1ccccc1OCC(O)CNC1C2CC3CC(C2)CC1C3 (stereo not drawn) [Compound I-9, 2-[3-(Adamantan-2-ylamino)-2-hydroxy-propoxy]-N-phenethyl-benzamide]	264 nM	29 nM	
COc1ccccc1CNC(=O)c1ccccc1OCC(O)CNC12CC3CC(CC(C3)C1)C2 (stereo not drawn) [Compound I-2, 2-[3-(Adamantan-1-ylamino)-2-hydroxy-propoxy]-N-(2-methoxy-benzyl)-benzamide]	680 nM	435 nM	
O=C(Nc1cccc(C(F)(F)F)c1)c1ccccc1OCC(O)CNCC12CC3CC(CC(C3)C1)C2 (stereo not drawn) [Compound I-42, 2-{3-[(Adamantan-1-ylmethyl)-amino]-2-hydroxy-propoxy}-N-(3-trifluoromethyl-phenyl)-benzamide]			% activity (percent reduction of parasitemia) [1]: 97.76%; avg.Day 4 (parasitemia) [1]: 1.33; % of control [1]: 2.24%; IC50 [2]: 2 nM; IC50 [3]: 0.5 nM
CN(CC(O)COc1ccccc1C(=O)NCc1ccc(C(F)(F)F)cc1)C1C2CC3CC(C2)CC1C3 (stereo not drawn) [Compound I-16, 2-[3-(Adamantan-2-yl-methyl-amino)-2-hydroxy-propoxy]-N-(4-trifluoromethyl-benzyl)-benzamide]	131 nM	54 nM	
O=C(NCc1ccccc1)c1ccccc1OCC(O)CN(CCc1ccccc1)C1C2CC3CC(C2)CC1C3 (stereo not drawn) [Compound I-22, 2-[3-(Adamantan-2-yl-phenethyl-amino)-2-hydroxy-propoxy]-N-benzyl-benzamide]	368 nM	251 nM	
O=C(Nc1ccc(F)cc1)c1ccccc1OCC(O)CNCC12CC3CC(CC(C3)C1)C2 (stereo not drawn) [Compound I-55, 2-{3-[(Adamantan-1-ylmethyl)-amino]-2-hydroxy-propoxy}-N-(4-fluoro-phenyl)-benzamide]			% activity (percent reduction of parasitemia) [1]: 67.35%; avg.Day 4 (parasitemia) [1]: 19.47; % of control [1]: 32.65%; IC50 [2]: 6 nM; IC50 [3]: 2 nM
O=C(NCc1ccccc1)c1ccccc1OCC(O)CNC1CCCCCCC1 (stereo not drawn) [Compound I-53, N-Benzyl-2-(3-cyclooctylamino-2-hydroxy-propoxy)-benzamide]	197 nM	29 nM	
COc1ccccc1CNC(=O)c1ccccc1OCC(O)CNCC12CC3CC(CC(C3)C1)C2 (stereo not drawn) [Compound I-29, 2-{3-[(Adamantan-1-ylmethyl)-amino]-2-hydroxy-propoxy}-N-(2-methoxy-benzyl)-benzamide]	97 nM	5 nM	
CCCNCC(O)COc1ccccc1C(=O)Nc1ccc(C)cc1 (stereo not drawn) [Compound I-54, 2-(2-Hydroxy-3-propylamino-propoxy)-N-p-tolyl-benzamide]	276 nM	85 nM	
O=C(NCc1ccccc1)c1ccccc1OCC(O)CNC1CCCCCCCCCCC1 (stereo not drawn) [Compound I-52, N-Benzyl-2-(3-cyclododecylamino-2-hydroxy-propoxy)-benzamide]	561 nM	52 nM	
CCCNCC(O)COc1ccccc1C(=O)NCc1ccccc1 (stereo not drawn) [aza-propafenone]			decrease in IC50-value compared to propafenone (A) [6]: seventy-fold decrease
O=C(NCc1ccccc1)c1ccccc1OCC(O)CNCCCc1ccccc1 (stereo not drawn) [Compound I-50, N-Benzyl-2-[2-hydroxy-3-(3-phenyl-propylamino)-propoxy]-benzamide]	1750 nM	403 nM	
COc1ccc(CNC(=O)c2ccccc2OCC(O)CN2CCN(c3cccc(C)c3C)CC2)cc1 (stereo not drawn) [Compound I-51, 2-{3-[4-(2,3-Dimethyl-phenyl)-piperazin-1-yl]-2-hydroxy-propoxy}-N-(4-methoxy-benzyl)-benzamide]	2020 nM	134 nM	
